In patent US4564619A, “Carbostyril derivative” (Otsuka Pharmaceutical Co., Ltd., priority 1982, dated 1986):

Experiments:
[1] = tested on: collagen-induced aggregation in rabbit platelets; test: Inhibition of collagen-induced platelet aggregation in rabbit platelet rich plasma; assay type: cell-based; conditions: Oryctolagus cuniculus, read-out: Inhibition rate of collagen-induced aggregation; for inhibition at 100 µM (stock): Concentration of the test compound solution 10^-4 mole; for inhibition at 10 µM (stock): Concentration of the test compound solution 10^-5 mole
Summary of the method: (§1)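 Citrated rabbit PRP adjusted to 600,000 platelets/μl with PPP, preincubated with test compound 1 min at 37° C, then challenged with ADP (solution prepared at 7.5×10^-5 M) or collagen (solution at 200 μg/ml). Aggregation followed by light transmittance; % inhibition relative to control aggregation rate.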

[2] = tested on: ADP-induced aggregation in rabbit platelets; test: Inhibition of ADP-induced platelet aggregation in rabbit platelet rich plasma; assay type: cell-based; conditions: Oryctolagus cuniculus, read-out: Inhibition rate of ADP-induced aggregation; for inhibition at 100 µM (stock): Concentration of the test compound solution 10^-4 mole; for inhibition at 10 µM (stock): Concentration of the test compound solution 10^-5 mole
Summary of the method: as §1

coronary artery = test: Increased amount of the blood flow in coronary artery, intravenous administration, anesthetized dog; assay type: in vivo
Description: The change of blood flow in coronary artery and the change of blood pressure were measured by a method according to Yakura et al., [Japan Journal of Pharmacology, Vol. 57, pages 380-391 (1961)] and according to Taira, et al. [Clin. Exp. Pharmacol. Physiol., Vol. 6, pages 301-316, (1976)].
An adult bastard dog of either sex weighing 8-13 kg was anesthetized with sodium pentobarbital at the rate of 30 mg/kg by intraveneous administration, then the dog was fixed in supination and was theracotomized under a condition of forced breathing. After another intraveneous administration of sodium heparin at the rate of 500 U/kg, 100 U/kg per hour, the dog was subjected to the following experiments.
(2) Intraveneous administration
Morawitz's cannula was cannulated to the coronary sinus venosus through the auricula dextra cordis, and the blood in vein was circulated to the right carotid. The blood flow was measured by an electromagnetic blood flow meter equipped with a blood flow observation probe in the extracorporeal circulation path of the vein. The systolic force was measured by a systolometer (pick-up) placed at the left ventricle of heart, the blood pressure was measured from the femoral artery, and the heart rate was measured from the pulse. A compound to be tested was administered through the cannula being cannulated in femoral vein. The increased amount of the blood flow in coronary artery after the administration of the test compound is shown in Table 4, also the change of blood pressure is shown in Table 5.

[3] = Change of blood pressure, intravenous administration, anesthetized dog; assay type: in vivo; parameters: unit not given here; conditions: femoral artery
Summary of the method: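 Pentobarbital-anesthetized (30 mg/kg i.v.), heparinized, thoracotomized dogs of either sex, 8-13 kg, under forced breathing; compound given via femoral vein. Coronary sinus outflow measured by electromagnetic flowmeter in an extracorporeal venous circuit to the carotid; blood pressure recorded from femoral artery.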

| Compound | inhibition at 100 µM (stock) [1] [%] | inhibition at 10 µM (stock) [1] [%] | inhibition at 100 µM (stock) [2] [%] | inhibition at 10 µM (stock) [2] [%] | Increased amount of the blood flow in coronary artery (coronary artery; 10 micrograms/kg) [mL/min] | Increased amount of the blood flow in coronary artery (coronary artery; 30 micrograms/kg) [mL/min] | Increased amount of the blood flow in coronary artery (coronary artery; 100 micrograms/kg) [mL/min] | Increased amount of the blood flow in coronary artery (coronary artery; 300 micrograms/kg) [mL/min] | Change of blood pressure ([3]; 30 micrograms/kg) | Change of blood pressure ([3]; 100 micrograms/kg) | Change of blood pressure ([3]; 300 micrograms/kg) | Increased amount of the blood flow in coronary artery (coronary artery; 3 micrograms/kg) [mL/min] | Change of blood pressure ([3]; 3 micrograms/kg) | Change of blood pressure ([3]; 10 micrograms/kg) | Increased amount of the blood flow in coronary artery (coronary artery; 1000 micrograms/kg) [mL/min] |
| --- | --- | --- | --- | --- | --- | --- | --- | --- | --- | --- | --- | --- | --- | --- | --- |
| COC(=O)C1=C(C)NC(C)=C(C(=O)OCCCOc2ccc3[nH]c(=O)ccc3c2)C1c1cccc([N+](=O)[O-])c1 (centres unmarked) [Compound 8, 6-{3-[2,6-Dimethyl-5-methoxycarbonyl-4-(3-nitrophenyl)-1,4-dihydropyridin-3-carboxy]-propoxy}carbostyril] | 99 | 27 | 76 | 10 | 1 | 2 | 12 | 56 | -3 | -16 | -33 |  |  |  |  |
| COC(=O)C1=C(C)NC(C)=C(C(=O)OCCCOc2cccc3c2NC(=O)CC3)C1c1cccc([N+](=O)[O-])c1 (centres unmarked) [Compound 9, 8-{3-[2,6-Dimethyl-5-methoxycarbonyl-4-(3-nitrophenyl)-1,4-dihydropyridin-3-carboxy]-propoxy}-3,4-dihydrocarbostyril] | 16 | 2 | 12 | 7 | 17 | 47 | 66 | 81 | -36 | -41 | -36 | 4 | -14 | -28 |  |
| COC(=O)C1=C(C)NC(C)=C(C(=O)OCCN(C(=O)CCCOc2ccc3[nH]c(=O)ccc3c2)C2CCCCC2)C1c1cccc([N+](=O)[O-])c1 (centres unmarked) [Compound 31, N--{2-[1,4-Dihydro-2,6-dimethyl-5-methoxycarbonyl-4-(3-nitrophenyl)pyridin-3-carboxy]ethyl}-N--cyclohexyl-4-(6-carbostyriloxy)butyramide] | 100 | 100 | 100 | 84 |  |  | 6 | 32 | -4 | -8 | -23 |  |  | -1 | 61 |
| C=CCOc1ccc(OCCCOC(=O)C2=C(C)NC(C)=C(C(=O)OC)C2c2cccc([N+](=O)[O-])c2)c2c1NC(=O)CC2 (centres unmarked) [Compound 1, 5-{3-[2,6-Dimethyl-5-methoxycarbonyl-4-(3-nitrophenyl)-1,4-dihydropyridin-3-carboxy]-propoxy}-8-propenyloxy-3,4-dihydrocarbostyril] | 51 | 15 | 19 | 1 | 34 | 63 | 62 | 42 | -36 | -42 | -46 | 4 | -6 | -17 |  |
